Literature values, collected in patent US20040018228A1, “Compositions and methods for reducing scar tissue formation” (Afmedica, Inc., priority 2000, published 2004).

What was measured:
[1] = tested on: keloids; settings: in vivo

Row | Structure (SMILES) | solubility in aqueous solutions | treatment of keloids [1]
1 | CO[C@H]1C[C@@H]2CC[C@@H](C)[C@@](O)(O2)C(=O)C(=O)N2CCCC[C@H]2C(=O)O[C@H]([C@H](C)C[C@@H]2CC[C@@H](O)[C@H](OC)C2)CC(=O)[C@H](C)/C=C(\C)[C@@H](O)[C@@H](OC)C(=O)[C@H](C)C[C@H](C)/C=C/C=C/C=C/1C [sirolimus] | not to be readily soluble in aqueous solutions | 
2 | C=CC[C@@H]1/C=C(\C)C[C@H](C)C[C@H](OC)[C@H]2O[C@@](O)(C(=O)C(=O)N3CCCC[C@H]3C(=O)O[C@H](/C(C)=C/[C@@H]3CC[C@@H](O)[C@H](OC)C3)[C@H](C)[C@@H](O)CC1=O)[C@H](C)C[C@@H]2OC [tacrolimus] |  | effectively treat keloids
